Reference: ChEMBL document CHEMBL1201861, “Genomics of Drug Sensitity in Cancer screening data, Wellcome Trust Sanger Institute”

Test system: MPP-89;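 further: growth inhibition of human MPP-89 cells, read out with a cell viability assay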
Test: cells
Format: functional, cell-based, Homo sapiens
Conditions: Homo sapiens, MPP-89
Description: SANGER: Inhibition of human MPP-89 cell growth in a cell viability assay.

| SMILES | IC50 |
| --- | --- |
| C[C@@H](Oc1cc(-c2cnn(C3CCNCC3)c2)cnc1N)c1c(Cl)ccc(F)c1Cl [CRIZOTINIB] | > 2000 nM |

Test system: HOP-62;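 further: cell growth inhibition determined with a viability assay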
Test: cells
Format: functional, cell-based, Homo sapiens
Conditions: Homo sapiens, HOP-62
Description: SANGER: Inhibition of human HOP-62 cell growth in a cell viability assay.

| SMILES | IC50 |
| --- | --- |
| C[C@@H](Oc1cc(-c2cnn(C3CCNCC3)c2)cnc1N)c1c(Cl)ccc(F)c1Cl [CRIZOTINIB] | > 2000 nM |

Test system: KGN;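 further: growth inhibition of KGN cells, read out with a cell viability assay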
Test: cells
Format: functional, cell-based, Homo sapiens
Conditions: Homo sapiens, KGN
Description: SANGER: Inhibition of human KGN cell growth in a cell viability assay.

| SMILES | IC50 |
| --- | --- |
| C[C@@H](Oc1cc(-c2cnn(C3CCNCC3)c2)cnc1N)c1c(Cl)ccc(F)c1Cl [CRIZOTINIB] | > 2000 nM |

Test system: KS-1;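 further: growth inhibition of KS-1 cells, read out with a cell viability assay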
Test: cells
Format: functional, cell-based
Conditions: Homo sapiens
Description: SANGER: Inhibition of human KS-1 cell growth in a cell viability assay.

| SMILES | IC50 |
| --- | --- |
| C[C@@H](Oc1cc(-c2cnn(C3CCNCC3)c2)cnc1N)c1c(Cl)ccc(F)c1Cl [CRIZOTINIB] | > 2000 nM |

Test system: TGBC24TKB;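 further: growth inhibition of human TGBC24TKB cells, read out with a cell viability assay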
Test: cells
Format: functional, cell-based
Conditions: Homo sapiens
Description: SANGER: Inhibition of human TGBC24TKB cell growth in a cell viability assay.

| SMILES | IC50 |
| --- | --- |
| C[C@@H](Oc1cc(-c2cnn(C3CCNCC3)c2)cnc1N)c1c(Cl)ccc(F)c1Cl [CRIZOTINIB] | > 2000 nM |

Test system: TE-10;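 further: growth inhibition of TE-10 cells, measured by a cell viability assay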
Test: cells
Format: functional, cell-based, Homo sapiens
Conditions: Homo sapiens, TE-10
Description: SANGER: Inhibition of human TE-10 cell growth in a cell viability assay.

| SMILES | IC50 |
| --- | --- |
| C[C@@H](Oc1cc(-c2cnn(C3CCNCC3)c2)cnc1N)c1c(Cl)ccc(F)c1Cl [CRIZOTINIB] | > 2000 nM |

Test system: COLO-684
Test: cells
Format: functional, cell-based, Homo sapiens
Conditions: Homo sapiens, COLO-684

| SMILES | IC50 |
| --- | --- |
| C[C@@H](Oc1cc(-c2cnn(C3CCNCC3)c2)cnc1N)c1c(Cl)ccc(F)c1Cl [CRIZOTINIB] | > 2000 nM |

Test system: MMAC-SF;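 further: growth inhibition of human MMAC-SF cells, read out with a cell viability assay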
Test: cells
Format: functional, cell-based
Conditions: Homo sapiens

| SMILES | IC50 |
| --- | --- |
| C[C@@H](Oc1cc(-c2cnn(C3CCNCC3)c2)cnc1N)c1c(Cl)ccc(F)c1Cl [CRIZOTINIB] | > 2000 nM |

Test system: GI-1;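 further: growth inhibition of human GI-1 cells, measured with a cell viability readout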
Test: cells
Format: functional, cell-based, Homo sapiens
Conditions: Homo sapiens, GI-1

| SMILES | IC50 |
| --- | --- |
| C[C@@H](Oc1cc(-c2cnn(C3CCNCC3)c2)cnc1N)c1c(Cl)ccc(F)c1Cl [CRIZOTINIB] | > 2000 nM |

Test system: BB49-HNC;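 further: cell viability assay read-out, reported as inhibition of BB49-HNC cell growth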
Test: cells
Format: functional, cell-based, Homo sapiens
Conditions: Homo sapiens, BB49-HNC
Description: SANGER: Inhibition of human BB49-HNC cell growth in a cell viability assay.

| SMILES | IC50 |
| --- | --- |
| C[C@@H](Oc1cc(-c2cnn(C3CCNCC3)c2)cnc1N)c1c(Cl)ccc(F)c1Cl [CRIZOTINIB] | > 2000 nM |

Test system: MOLT-16;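 further: growth inhibition of human MOLT-16 cells, read out with a cell viability assay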
Test: cells
Format: functional, cell-based, Homo sapiens
Conditions: Homo sapiens, MOLT-16
Description: SANGER: Inhibition of human MOLT-16 cell growth in a cell viability assay.

| SMILES | IC50 |
| --- | --- |
| C[C@@H](Oc1cc(-c2cnn(C3CCNCC3)c2)cnc1N)c1c(Cl)ccc(F)c1Cl [CRIZOTINIB] | 1960 nM |

Test system: MZ2-MEL;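 further: growth inhibition of MZ2-MEL cells read out with a cell viability assay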
Test: cells
Format: functional, cell-based, Homo sapiens
Conditions: Homo sapiens, MZ2-MEL
Description: SANGER: Inhibition of human MZ2-MEL cell growth in a cell viability assay.

| SMILES | IC50 |
| --- | --- |
| C[C@@H](Oc1cc(-c2cnn(C3CCNCC3)c2)cnc1N)c1c(Cl)ccc(F)c1Cl [CRIZOTINIB] | > 2000 nM |

Test system: OVCAR-4;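 further: growth inhibition of human OVCAR-4 cells, measured with a cell viability assay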
Test: cells
Format: functional, cell-based, Homo sapiens
Conditions: Homo sapiens, OVCAR-4
Description: SANGER: Inhibition of human OVCAR-4 cell growth in a cell viability assay.

| SMILES | IC50 |
| --- | --- |
| C[C@@H](Oc1cc(-c2cnn(C3CCNCC3)c2)cnc1N)c1c(Cl)ccc(F)c1Cl [CRIZOTINIB] | > 2000 nM |

Test system: GI-ME-N;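 further: growth inhibition of human GI-ME-N cells, read out with a cell viability assay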
Test: cells
Format: functional, cell-based, Homo sapiens
Conditions: Homo sapiens, GI-ME-N
Description: SANGER: Inhibition of human GI-ME-N cell growth in a cell viability assay.

| SMILES | IC50 |
| --- | --- |
| C[C@@H](Oc1cc(-c2cnn(C3CCNCC3)c2)cnc1N)c1c(Cl)ccc(F)c1Cl [CRIZOTINIB] | > 2000 nM |

Test system: NCI-H2126;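 further: growth inhibition of the cancer cell line, determined with a cell viability readout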
Test: cells
Format: functional, cell-based, Homo sapiens
Conditions: Homo sapiens, NCI-H2126
Description: SANGER: Inhibition of human NCI-H2126 cell growth in a cell viability assay.

| SMILES | IC50 |
| --- | --- |
| C[C@@H](Oc1cc(-c2cnn(C3CCNCC3)c2)cnc1N)c1c(Cl)ccc(F)c1Cl [CRIZOTINIB] | > 2000 nM |

Test system: GT3TKB;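 further: growth inhibition of the cell line, read out with a cell viability assay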
Test: cells
Format: functional, cell-based, Homo sapiens
Conditions: Homo sapiens, GT3TKB
Description: SANGER: Inhibition of human GT3TKB cell growth in a cell viability assay.

| SMILES | IC50 |
| --- | --- |
| C[C@@H](Oc1cc(-c2cnn(C3CCNCC3)c2)cnc1N)c1c(Cl)ccc(F)c1Cl [CRIZOTINIB] | > 2000 nM |

Test system: C2BBe1;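 further: growth inhibition of C2BBe1 cells, read out through a viability assay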
Test: cells
Format: functional, cell-based, Homo sapiens
Conditions: Homo sapiens, C2BBe1
Description: SANGER: Inhibition of human C2BBe1 cell growth in a cell viability assay.

| SMILES | IC50 |
| --- | --- |
| C[C@@H](Oc1cc(-c2cnn(C3CCNCC3)c2)cnc1N)c1c(Cl)ccc(F)c1Cl [CRIZOTINIB] | > 2000 nM |

Test system: no-11;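 further: growth inhibition of human NO-11 cells, read out with a cell viability assay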
Test: cells
Format: functional, cell-based, Homo sapiens
Conditions: Homo sapiens
Description: SANGER: Inhibition of human no-11 cell growth in a cell viability assay.

| SMILES | IC50 |
| --- | --- |
| C[C@@H](Oc1cc(-c2cnn(C3CCNCC3)c2)cnc1N)c1c(Cl)ccc(F)c1Cl [CRIZOTINIB] | > 2000 nM |

Test system: NB6;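 further: growth inhibition of NB6 cells, read out by a cell viability assay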
Test: cells
Format: functional, cell-based, Homo sapiens
Conditions: Homo sapiens, NB6
Description: SANGER: Inhibition of human NB6 cell growth in a cell viability assay.

| SMILES | IC50 |
| --- | --- |
| C[C@@H](Oc1cc(-c2cnn(C3CCNCC3)c2)cnc1N)c1c(Cl)ccc(F)c1Cl [CRIZOTINIB] | > 2000 nM |

Test system: NCI-H747;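 further: growth inhibition of human NCI-H747 cells, read out by a cell viability assay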
Test: cells
Format: functional, cell-based, Homo sapiens
Conditions: Homo sapiens, NCI-H747
Description: SANGER: Inhibition of human NCI-H747 cell growth in a cell viability assay.

| SMILES | IC50 |
| --- | --- |
| C[C@@H](Oc1cc(-c2cnn(C3CCNCC3)c2)cnc1N)c1c(Cl)ccc(F)c1Cl [CRIZOTINIB] | > 2000 nM |

Test system: NCI-H1395;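 further: cell viability assay read-out quantifying reduced proliferation of human NCI-H1395 cells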
Test: cells
Format: functional, cell-based, Homo sapiens
Conditions: Homo sapiens, NCI-H1395
Description: SANGER: Inhibition of human NCI-H1395 cell growth in a cell viability assay.

| SMILES | IC50 |
| --- | --- |
| C[C@@H](Oc1cc(-c2cnn(C3CCNCC3)c2)cnc1N)c1c(Cl)ccc(F)c1Cl [CRIZOTINIB] | > 2000 nM |

Test system: BE-13;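 further: growth inhibition of human BE-13 cells, measured with a cell viability assay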
Test: cells
Format: functional, cell-based, Homo sapiens
Conditions: Homo sapiens, BE-13
Description: SANGER: Inhibition of human BE-13 cell growth in a cell viability assay.

| SMILES | IC50 |
| --- | --- |
| C[C@@H](Oc1cc(-c2cnn(C3CCNCC3)c2)cnc1N)c1c(Cl)ccc(F)c1Cl [CRIZOTINIB] | > 2000 nM |

Test system: GB-1;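 further: growth of GB-1 cells judged by a viability assay, IC50 marks the concentration inhibiting growth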
Test: cells
Format: functional, cell-based, Homo sapiens
Conditions: Homo sapiens, GB-1
Description: SANGER: Inhibition of human GB-1 cell growth in a cell viability assay.

| SMILES | IC50 |
| --- | --- |
| C[C@@H](Oc1cc(-c2cnn(C3CCNCC3)c2)cnc1N)c1c(Cl)ccc(F)c1Cl [CRIZOTINIB] | > 2000 nM |

Test system: RXF 393;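 further: growth inhibition of human RXF 393 cells, read out with a cell viability assay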
Test: cells
Format: functional, cell-based, Homo sapiens
Conditions: Homo sapiens, RXF 393
Description: SANGER: Inhibition of human RXF393 cell growth in a cell viability assay.

| SMILES | IC50 |
| --- | --- |
| C[C@@H](Oc1cc(-c2cnn(C3CCNCC3)c2)cnc1N)c1c(Cl)ccc(F)c1Cl [CRIZOTINIB] | > 2000 nM |

Test system: LS-1034
Test: cells
Format: functional, cell-based, Homo sapiens
Conditions: Homo sapiens, LS-1034
Description: SANGER: Inhibition of human LS-1034 cell growth in a cell viability assay.

| SMILES | IC50 |
| --- | --- |
| C[C@@H](Oc1cc(-c2cnn(C3CCNCC3)c2)cnc1N)c1c(Cl)ccc(F)c1Cl [CRIZOTINIB] | > 2000 nM |
